The source of these data is US8044206B2, “Nitrogen—containing heterocyclic derivatives having 2,6-disubstituted styryl” (Astellas Pharma Inc., priority 2003, dated 2011).

Molecules are shown by their SMILES. Counter-ions that a name gives are not always drawn.

The first assay relates to mice with streptozotocin (STZ)-induced diabetic neuropathy. Kind of assay: Analgesic action in mice with streptozotocin (STZ)-induced diabetic neuropathy, tail pinch test. The class given is in vivo. To be noted: male ICR mice, Day 15 after STZ, oral 30 mg/kg, 45 minutes prior to measurement, latency after minus before administration. On the procedure: Representative compounds of Compound (I) of the present invention were assessed for the analgesic action in mice with streptozotocin (STZ)-induced diabetic neuropathy to confirm the effect on neuropathic pain. The assessment was performed by the method of Kamei et al. (Pharmacology Biochemistry & Behavior 39, 541-544, 1991) with some modifications.
Male ICR mice of 4 weeks old were intraperitoneally injected with 200 mg/kg weight of STZ to prepare mice with diabetic neuropathic pain. The analgesic action was assessed by the tail pinch test. […] On Day 14 following the STZ injection, a pretest was carried out to determine the response latency before the administration of a test compound. Only the animals showing not longer than 3 seconds of the response latency in the pretest were used for the test compound assessment on the following day (Day 15 after STZ injection).
In the test compound assessment, the response latency after the administration of a test compound was measured. The test compound was orally administered at a dose of 30 mg/kg, 45 minutes prior to the response latency measurement
The analgesic action of a test compound is expressed as prolongation of latency (in seconds) calculated by the formula: (response latency after administration of a test compound)−(response latency before administration of a test compound).
`Cc1cc(C#N)cc(C)c1/C=C/C1CCNCC1` [Example 49, 3,5-dimethyl-4-[(E)-2-piperidin-4-ylvinyl]benzonitrile]: the “Anti-STZ-induced pain after oral administration: Latency prolongation” value (shortened to “Anti-STZ-induced pain”) stood at 2.2 s.

On to `Cc1cccc(C)c1/C=C/C1CCN(C(=O)c2nc(N)n[nH]2)CC1` [Example 87, 5-({4-[(E)-2-(2,6-dimethylphenyl)vinyl]piperidin-1-yl}carbonyl)-1H-1,2,4-triazol-3-amine], for which the “Anti-STZ-induced pain” value came to 1.6 s.

On to `Cc1cc(Oc2ccccc2)cc(C)c1/C=C/C1CCN(C(=O)CN2CCOCC2)CC1` [Example 99, 4-(2-{4-[(E)-2-(2,6-dimethyl-4-phenoxyphenyl)vinyl]piperidin-1-yl}-2-oxoethyl) morpholine], for which the “Anti-STZ-induced pain” value is 1.7 s.

With `Cc1cccc(C)c1/C=C/C1CCCN(C(=O)CN2CCOCC2)C1` (stereo not drawn) [Example 101], the “Anti-STZ-induced pain” value is 2.0 s.

In the case of `Cc1cccc(C)c1/C=C/C1CCCCN1C(=O)CN1CCOCC1` (stereo not drawn) [Example 102, 4-(2-{2-[(E)-2-(2,6-dimethylphenyl)vinyl]piperidin-1-yl}-2-oxoethyl)morpholine], the “Anti-STZ-induced pain” value is 2.1 s.

In the case of `Cc1cccc(C)c1/C=C/C1CCN(C(=O)CN2CCN(C(=O)c3cccnc3)CC2)CC1` [Example 105, 1-(2-{4-[(E)-2-(2,6-dimethylphenyl)vinyl]piperidin-1-yl}-2-oxoethyl)-4-(pyridin-3-ylcarbonyl)piperazine], the “Anti-STZ-induced pain” value is 1.8 s.

Take `Cc1cccc(C)c1/C=C/C1CCN(C(=O)C(C)(C)N)CC1` [Example 108, (2-{4-[(E)-2-(2,6-dimethylphenyl)vinyl]piperidin-1-yl}-1,1-dimethyl-2-oxoethyl)amine monohydrochloride]: the “Anti-STZ-induced pain” value stood at 1.8 s.

With `Cc1cccc(C)c1/C=C/C1CCN(C(=O)C2(N)CCC2)CC1` [Example 110, [1-({4-[(E)-2-(2,6-dimethylphenyl)vinyl]piperidin-1-yl}carbonyl)cyclobutyl]amine], the “Anti-STZ-induced pain” value was determined as 2.1 s.

Turning to `Cc1cccc(C)c1/C=C/C1CCN(C(=O)[C@@H]2CCCN2)CC1` [Example 114, 4-[(E)-2-(2,6-dimethylphenyl)vinyl]-1-[(2S)-pyrolidin-2-ylcarbonyl]piperidine], the “Anti-STZ-induced pain” value amounted to 2.4 s.

In the case of `Cc1cccc(C)c1/C=C/C1CCN(C(=O)Cn2ccnc2)CC1.Cl` [Example 125, 4-[(E)-2-(2,6-dimethylphenyl)vinyl]-1-(1H-imidazol-1-ylacetyl)piperidine monohydrochloride], the “Anti-STZ-induced pain” value turned out to be 1.6 s.

As to `Cc1cccc(C)c1/C=C/C1CCN(C(=O)CNC2COC2)CC1` [Example 126, N-(2-{4-[(E)-2-(2,6-dimethylphenyl)vinyl]piperidin-1-yl}-2-oxoethyl)oxetane-3-amine], the “Anti-STZ-induced pain” value was determined as 1.5 s.

For the compound `CC(=O)NCCNCC(=O)N1CCC(/C=C/c2c(C)cccc2C)CC1` [Example 134, N-{2-[(2-[4-[(E)-2-(2,6-dimethylphenyl)vinyl]piperidin-1-yl]-2-oxoethyl)amino]ethyl}acetamide], the “Anti-STZ-induced pain” value came out at 1.7 s.

Take `Cc1cccc(C)c1/C=C/C1CCN(C(=O)CNCCO)CC1` [Example 135, 2-[(2-{4-[(E)-2-(2,6-dimethylphenyl)vinyl]piperidin-1-yl}-2-oxoethyl)amino]ethanol]: the “Anti-STZ-induced pain” value was found to be 2.4 s.

In the case of `Cc1cccc(C)c1/C=C/C1CCN(C(=O)CN2CCCCC2C(N)=O)CC1` (stereo not drawn) [Example 150, 1-(2-{4-[(E)-2-(2,6-dimethylphenyl)vinyl]piperidin-1-yl}-2-oxoethyl)piperidine-2-carboxamide], the “Anti-STZ-induced pain” value was determined as 1.7 s.

For `Cc1cccc(C)c1/C=C/C1CCN(C(=O)CN2CCC(N3CCCC3)CC2)CC1` [Example 170, 4-[(E)-2-(2,6-dimethylphenyl)vinyl]-1-[(4-pyrolidin-1-ylpiperidin-1-yl)acetyl]piperidine], the “Anti-STZ-induced pain” value came out at 1.7 s.

Consider `Cc1cccc(C)c1/C=C/C1CCN(C(=O)CN2CCOCC2)CC1` [Example 179, 4-(2-{4-[(E)-2-(2,6-dimethylphenyl)vinyl]piperidin-1-yl}-2-oxoethyl)morpholine], for which the “Anti-STZ-induced pain” value is 1.8 s.

As for `Cc1cccc(C)c1/C=C/C1CCN(C(=O)CN2CCOC(CO)C2)CC1` (stereo not drawn) [Example 180, [4-(2-{4-[(E)-2-(2,6-dimethylphenyl)vinyl]piperidin-1-yl}-2-oxoethyl)morpholine-2-yl]methanol], the “Anti-STZ-induced pain” value stood at 2.3 s.

For another assay, the system named is sodium channel. Kind of assay: [14C] guanidine uptake induced by veratridine in rat cerebral cortex primary neurons (sodium channel inhibitory action). Type of assay: cell-based. To be noted: [14C] guanidine uptake induced by 100 μM veratridine, specific uptake = portion inhibited by 1 mM mexiletine, read-out: Na Channel Inhibition IC50. On the procedure: The [^14C] guanidine uptake experiment was performed by the method of Bonisch et al. (British Journal of Pharmacology 108, 436-442, 1993) with some modifications. The [^14C] guanidine was used as a sodium tracer, and the inhibitory activity on uptake of [^14C] guanidine induced by veratridine as a sodium channel activator into rat cerebral cortex primary neurons was measured.
Pregnant rats (Wistar, female, 19 days of gestation) were anesthetized with ether. The animals were bled to death by giving incision through the carotid artery. The fetuses were taken out of the pregnant rats and after ethanol sterilization, the cerebral cortex was removed from the fetuses. The cerebral cortex was digested with papain and dispersed in culture medium, followed by plating on a poly-L-lysine-coated 96-well white plate at a density of 2.5×10^5 cells/well. Incubation was performed in a CO2 incubator (37° C., 5% CO2) for 2 days.
After each well was washed once with an assay buffer (135 mM choline Cl, 5 mM KCl, 1 mM MgSO4, 5.5 mM glucose, 1 mg/mL BSA, 10 mM Hepes-Tris, pH 7.4), a fresh assay buffer was added to the well, followed by incubation at 25° C. for 10 minutes. Then, a reaction solution (a test compound, [^14C] guanidine and 100 μM, veratridine) was replaced for the buffer, followed by incubation at 25° C. for 15 minutes. The reaction was terminated by washing 3 times with a cold wash buffer (135 mM NaCl, 5 mM KCl, 1 mM MgSO4, 10 mM Hepes-Tris, pH 7.4). To each well, 17 μl of 0.1N NaOH was added. After agitation, 100 μl of scintillator was added to the well and further agitation was continued. The radioactivity was quantified by a liquid scintillation counter. In each experiment, the sodium channel-specific uptake of the whole uptake was designated as portion that was inhibited by 1 mM mexiletine. The action of the test compound on sodium channel is expressed as 50% inhibition concentration (IC50) based on the specific uptake.
Broadly, the IC50 is the concentration at which inhibition is half-maximal. In the case of `Cc1cccc(C)c1/C=C/c1ccncc1` [Example 25-2], the half-inhibitory concentration (IC50) is 29 µM.

Regarding `CCc1cccc(CC)c1/C=C/C1CCNCC1` [Example 40], the IC50 is 8.4 µM.

Take `CCCCN(CCCC)C(=O)c1cc(C)c(/C=C/C2CCNCC2)c(C)c1` [Example 51]: the half-maximal inhibitory concentration (IC50) was determined as 15 µM.

For the compound `COc1cc(C)c(/C=C/C2CCNCC2)c(C)c1` [Example 54], the half-maximal inhibitory concentration (IC50) was determined as 19 µM.

Take `Cc1cc(Br)cc(C)c1/C=C\C1CCNCC1` [Example 56]: the concentration for half-maximal inhibition (IC50) worked out at 6.7 µM.

As to `Cc1cccc(C)c1/C=C/[C@H]1CCNC[C@@H]1C` [Example 68, 4-[(E)-2-(2,6-dimethylphenyl)vinyl]-3-methylpiperidine hydrochloride], the concentration for half-maximal inhibition (IC50) amounted to 8.7 µM.

In the case of `Cc1cccc(C)c1/C=C/C1CCN(Cc2ccccc2)CC1` [Example 73, 1-benzyl-4-[(E)-2-(2,6-dimethylphenyl)vinyl]piperidine], the concentration for half-maximal inhibition (IC50) is 1.9 µM.

Take `COCCN1CCC(/C=C/c2c(C)cccc2C)CC1` [Example 75]: the half-inhibitory concentration (IC50) was 3.5 µM.

As to `O=C(CN1CCOCC1)N1CCC(/C=C/c2c(Cl)cccc2Cl)CC1` [Example 98], the IC50 was 12 µM.

Take `Cc1cccc(C)c1/C=C/CC1CCN(C(=O)CN2CCOCC2)CC1` [Example 103]: the half-inhibitory concentration (IC50) was 5 µM.

`Cc1cccc(C)c1C=CC1CCN(C(=O)C2COCCN2)CC1` (stereo not drawn) [Example 122]: the IC50 stood at 9.4 µM.

With `Cc1cccc(C)c1/C=C/C1CCN(C(=O)CNC2CCOCC2)CC1` [Example 129, (2-{4-[(E)-2-(2,6-dimethylphenyl)vinyl]piperidin-1-yl}-2-oxoethyl)tetrahydro-2H-pyran-4-ylamine], the IC50 came to 4.2 µM.

`Cc1cccc(C)c1C=CC1CCN(C(=O)CNCC2CCCO2)CC1` (stereo not drawn) [Example 130]: the half-maximal inhibitory concentration (IC50) stood at 3.4 µM.

Consider `Cc1cccc(C)c1/C=C/C1CCN(C(=O)CN2CC=CC2)CC1` [Example 145], for which the IC50 came out at 6 µM.

For the compound `Cc1cccc(C)c1C=CC1CCN(C(=O)CN2CC(C)CC(C)C2)CC1` (stereo not drawn) [Example 153, 1-(2-{4-(E)-2-(2,6-dimethylphenyl)vinyl]piperidin-1-yl}-2-oxoethyl)-3,5-dimethyl piperidine], the concentration for half-maximal inhibition (IC50) stood at 2.4 µM.

For `Cc1cccc(C)c1/C=C/C1CCN(C(=O)CN2CCC(Cc3ccccc3)CC2)CC1` [Example 165], the IC50 amounted to 2.3 µM.

With `Cc1cccc(C)c1/C=C/C1CCN(C(=O)CN2CCN(C3CCCCC3)CC2)CC1` [Example 176], the 50% inhibitory concentration (IC50) is 2.5 µM.

As to `Cc1cccc(C)c1/C=C/C1CCN(C(=O)CN2CCSCC2)CC1` [Example 185], the half-maximal inhibitory concentration (IC50) turned out to be 6.7 µM.

As to `Cc1cccc(C)c1C=CC1CCN(C(=O)CN2CCCC3CCCCC32)CC1` (stereo not drawn) [Example 192], the IC50 stood at 1.1 µM.

Consider `Cc1cccc(C)c1/C=C/C1CCN(C(=O)CNCCN)CC1` [Example 198], for which the IC50 amounted to 8.5 µM.

On to `Cc1cccc(C)c1C=CC1CCN(C(=O)CN(C)CC2CCCO2)CC1` (stereo not drawn) [Example 211], for which the IC50 is 3 µM.

As for `Cc1cccc(C)c1/C=C/C1CCN(C(=O)CN(C)CCN2CCOCC2)CC1` [Example 213], the half-inhibitory concentration (IC50) was 3.7 µM.
